Target: T1, human NHE-3 protein (expressed in the LAP1 cell line) (Homo sapiens, UniProt P48764)
T1 construct: expressed in transfected cells; host or cells: LAP1 cell line
T1 sequence (P48764 26-834): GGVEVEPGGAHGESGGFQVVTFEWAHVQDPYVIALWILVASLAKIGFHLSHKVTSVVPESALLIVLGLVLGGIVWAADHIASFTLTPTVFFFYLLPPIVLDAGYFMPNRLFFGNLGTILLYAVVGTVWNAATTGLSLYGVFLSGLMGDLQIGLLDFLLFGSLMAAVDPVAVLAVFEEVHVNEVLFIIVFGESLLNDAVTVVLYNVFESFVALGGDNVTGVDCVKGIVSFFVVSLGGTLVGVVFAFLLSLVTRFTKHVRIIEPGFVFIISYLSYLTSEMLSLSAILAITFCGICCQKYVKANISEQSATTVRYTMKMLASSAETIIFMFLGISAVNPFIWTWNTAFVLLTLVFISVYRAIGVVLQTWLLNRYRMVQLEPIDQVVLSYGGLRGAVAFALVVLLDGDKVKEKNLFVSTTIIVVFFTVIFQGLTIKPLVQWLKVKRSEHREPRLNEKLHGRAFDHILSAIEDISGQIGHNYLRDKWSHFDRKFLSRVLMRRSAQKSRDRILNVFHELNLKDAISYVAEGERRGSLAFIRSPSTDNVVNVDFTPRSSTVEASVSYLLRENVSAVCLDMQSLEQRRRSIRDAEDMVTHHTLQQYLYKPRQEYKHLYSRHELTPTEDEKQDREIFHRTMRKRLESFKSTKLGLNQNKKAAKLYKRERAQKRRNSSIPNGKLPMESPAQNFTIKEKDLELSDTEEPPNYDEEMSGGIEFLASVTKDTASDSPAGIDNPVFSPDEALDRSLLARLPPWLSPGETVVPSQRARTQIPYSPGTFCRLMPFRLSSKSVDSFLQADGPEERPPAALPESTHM
Assay: Inhibition of sodium/proton exchanger subtype 3: recovery of intracellular pH after acidification (BCECF fluorescence)
Format: cell-based
Details: at 30 μM, pHi recovery as percentage of the maximum recovery
Description: Biological testing of the novel compounds was accomplished by measuring inhibition of the sodium/proton exchanger subtype 3.
The remaining activity of the human NHE-3 protein (expressed in the LAP1 cell line) was determined by measuring the recovery in the intracellular pH (pHi) after an acidification, which starts when the NHE is capable of functioning, even under bicarbonate-free conditions. For this purpose, the pHi was determined using the pH-sensitive fluorescent dye BCECF (Calbiochem, the precursor BCECF-AM is employed). The cells were initially loaded with BCECF. […] The intracellular acidification was induced by addition of 975 μl of an NH4Cl-free buffer (see below) to 25 μl aliquots of the cells incubated in NH4Cl buffer. The subsequent rate of pH recovery was recorded for 3 minutes. To calculate the inhibitory power of the substances tested, the cells were initially investigated in buffers in which complete or absolutely no pH recovery took place. […] Test solutions of the substances of interest were made up in the Na^+-containing buffer. Recovery of the intracellular pH at the tested concentration of a substance was expressed as a percentage of the maximum recovery.
With `CC(=O)c1c(C)nc2ccccc2c1NCc1ccc(CCC2(O)CCC3(C)C(CC(O)C4C3CC(O)C3(C)C(C(C)CCC(=O)O)CCC43)C2)cc1` (stereo not drawn) [Example 2, 2-Methyl-3-acetyl-4-{4-[1-(3α,7α, 12α-trihydroxy-10β,13β-dimethyl-17β-(3-carboxy-1-methylpropyl)hexadecahydrocyclopenta[a]phenanthren-3-yl)eth-2-yl]benzylamino}quinoline] the “remaining activity of hNHE3” value was 33%. With `CC(=O)c1c(C)nc2ccccc2c1NCc1ccccc1CCC1(O)CCC2(C)C(CC(O)C3C2CC(O)C2(C)C(C(C)CCC(=O)O)CCC32)C1` (stereo not drawn) [Example 18, 2-Methyl-3-acetyl-4-{2-[1-(3α,7α,12α-trihydroxy-10β,13β-dimethyl-17β(3-carboxy-1-methylpropyl)hexadecahydrocyclopenta[a]phenanthren-3-yl)eth-2-yl]benzylamino}quinoline] the “remaining activity of hNHE3” value was 36%.

Same assay, conditions: pHi recovery as percentage of the maximum recovery, read-out: remaining activity of hNHE3
In the case of `CC(=O)c1c(NCc2ccc(C#CC3(O)CC[C@@]4(C)C(CC(O)C5C4CC(O)[C@@]4(C)C5CC[C@@H]4[C@H](C)CCC(=O)O)C3)cc2)cc(C)nc1C` (stereo partly drawn) [Example 30, 2,6-Dimethyl-3-acetyl-4-{4-[1-(3α,7α,12α-trihydroxy-10β,13β-dimethyl-17β-(3-carboxy-1-methylpropyl)hexadecahydrocyclopenta[a]phenanthren-3-yl)ethyn-2-yl]benzylamino}pyridine], the remaining activity at 30 µM is reported as 48%. Compound `CC(=O)c1c(C)nc2ccccc2c1NCc1ccc(C#CC2(O)CCC3(C)C(CC(O)C4C3CC(O)C3(C)C4CC[C@@H]3C(C)CCC(=O)O)C2)c(Cl)c1` (stereo partly drawn) [Example 25, 2-Methyl-3-acetyl-4-{4-[1-(3α,7α,12α-trihydroxy-10β,13β-dimethyl-17β-(3-carboxy-1-methylpropyl)hexadecahydrocyclopenta[a]phenanthren-3-yl)ethyn-2-yl]-3-chlorobenzylamino}quinoline] has a remaining activity at 30 µM of 18%. In the case of `CC(=O)c1c(C)nc2ccccc2c1NCc1ccc(CCC2(O)CCC3(C)C(CC(O)C4C3CC(O)C3(C)C4CC[C@@H]3C(C)CCC(=O)O)C2)cc1Cl` (stereo partly drawn) [Example 29, 2-Methyl-3-acetyl-4-{4-[1-(3α,7α,12α-trihydroxy-10β,13β-dimethyl-17β(3-carboxy-1-methylpropyl)hexadecahydrocyclopenta[a]phenanthren-3-yl)eth-2-yl]-2-chlorobenzylamino}quinoline], the remaining activity at 30 µM is reported as 61%. For `CC(=O)c1c(C)nc2ccccc2c1NCc1ccc(C#CC2(O)CCC3(C)C(CC(O)C4C3CC(O)C3(C)C4CC[C@@H]3C(C)CCC(=O)O)C2)cc1F` (stereo partly drawn) [Example 26], the remaining activity at 30 µM was 52%. Compound `COC(=O)c1c(C)nc2ccccc2c1NCc1ccc(C#CC2(O)CCC3(C)C(CC(O)C4C3CC(O)C3(C)C4CC[C@@H]3C(C)CCC(=O)O)C2)cc1` (stereo partly drawn) [Example 6, Methyl 2-methyl-4-{4-[1-(3α,7α,12α-trihydroxy-10β, 13β-dimethyl-17β-(3carboxy-1-methylpropyl)hexadecahydrocyclopenta[a]phenanthren-3-yl)ethyn-2-yl]benzylamino}quinoline-3-carboxylate] has a remaining activity at 30 µM of 39%. For `COC(=O)CC[C@@H](C)[C@H]1CCC2C3C(C[C@H](O)[C@@]21C)[C@@]1(C)CC[C@H](OCCNC(=O)c2c(C)nc4ccccc4c2NCc2ccccc2)CC1C[C@H]3O` (stereo partly drawn) [Example 3, 2-Methyl-4-aminobenzyl-N-{2-[7α, 12α-dihydroxy-10β,13β-dimethyl-17β-(3-methoxycarbonyl-1-methylpropyl)hexadecahydrocyclopenta[a]phen-anthren-3β-yloxy]ethyl}quinoline-3-carboxamide], the remaining activity at 30 µM was 22%. For `CC(=O)c1c(C)nc2ccccc2c1NCc1cccc(CC[C@@]2(O)CC[C@@]3(C)C(C[C@@H](O)C4C3C[C@H](O)[C@@]3(C)C4CC[C@@H]3[C@H](C)CCC(=O)NCCS(=O)(=O)O)C2)c1` (stereo partly drawn) [Example 16, 2-Methyl-3-acetyl-4-{3-[1-(3α,7α,12α-trihydroxy-10β,13β-dimethyl-17β(3-(2-sulfoethylcarbamoyl)-1-methylpropyl)hexadecahydrocyclopenta[a]phenanthren-3-yl)eth-2-yl]benzylamino}quinoline], the remaining activity at 30 µM was 27%. With `CC(=O)c1c(NCc2ccc(CCC3(O)CC[C@@]4(C)C(CC(O)C5C4CC(O)[C@@]4(C)C5CC[C@@H]4[C@H](C)CCC(=O)O)C3)cc2)cc(C)nc1C` (stereo partly drawn) [Example 31, 2,6-Dimethyl-3-acetyl-4-{4-[1-(3α,7α,12α-trihydroxy-10β,13β-dimethyl-17β-(3-carboxy-1-methylpropyl)hexadecahydrocyclopenta[a]phenanthren-3-yl)eth-2-yl]benzylamino}pyridine] the remaining activity at 30 µM was 69%. `CC(=O)c1c(C)nc2ccccc2c1NCc1ccc(CCC2(O)CCC3(C)C(CC(O)C4C3CC(O)C3(C)C4CC[C@@H]3C(C)CCC(=O)O)C2)c(F)c1` (stereo partly drawn) [Example 24, 2-Methyl-3-acetyl-4-{4-[1-(3α,7α,12α-trihydroxy-10β,13β-dimehtyl-17β-(3-carboxy-1-methylpropyl)hexadecahydrocyclopenta[a]phenanthren-3-yl)eth-2-yl]-3-fluorobenzylamino}quinoline] gave a remaining activity at 30 µM of 29%. In the case of `CC(=O)c1c(C)nc2ccccc2c1NCc1ccc(CCC2(O)CCC3(C)C(CC(O)C4C3CC(O)C3(C)C4CC[C@@H]3C(C)CCC(=O)O)C2)cc1F` (stereo partly drawn) [Example 27, 2-Methyl-3-acetyl-4-{4-[1-(3α,7α,12α-trihydroxy-10β,13β-dimethyl-17β-(3-carboxy-1-methylpropyl)hexadecahydrocyclopenta[a]phenanthren-3-yl)eth-2-yl]-2-fluorobenzylamino}quinoline], the remaining activity at 30 µM is reported as 54%. For `CC(=O)c1c(C)nc2ccccc2c1NCc1ccc(C#CC2(O)CCC3(C)C(CC(O)C4C3CC(O)C3(C)C4CC[C@@H]3C(C)CCC(=O)O)C2)c(F)c1` (stereo partly drawn) [Example 23, 2-Methyl-3-acetyl-4-{4-[1-(3α,7α,12α-trihydroxy-10β,13β-dimethyl-17β-(3-carboxy-1-methylpropyl)hexadecahydrocyclopenta[a]phenanthren-3-yl)ethyn-2-yl]-3-fluorobenzylamino}quinoline], the remaining activity at 30 µM was 16%. With `CC(=O)c1c(C)nc2ccccc2c1NCc1ccc(C#CC2(O)CCC3(C)C(CC(O)C4C3CC(O)C3(C)C4CC[C@@H]3C(C)CCC(=O)O)C2)cc1Cl` (stereo partly drawn) [Example 28, 2-Methyl-3-acetyl-4-{4-[1-(3α,7α,12α-trihydroxy-10β,13β-dimethyl-17β-(3-carboxy-1-methylpropyl)hexadecahydrocyclopenta[a]phenanthren-3-yl)ethyn-2-yl]-2-chlorobenzylamino}quinoline] the remaining activity at 30 µM was 69%. Compound `CC(=O)c1c(C)nc2ccccc2c1NCc1ccccc1C#CC1(O)CC[C@@]2(C)C(CC(O)C3C2CC(O)[C@@]2(C)C3CC[C@@H]2[C@H](C)CCC(=O)O)C1` (stereo partly drawn) [Example 17, 2-Methyl-3-acetyl-4-{2-[1-(3α,7α,12α-trihydroxy-10β,13β-dimethyl-17β-(3-carboxy-1-methylpropyl)hexadecahydrocyclopenta[a]phenanthren-3-yl)ethyn-2-yl]benzylamino}quinoline] has a remaining activity at 30 µM of 36%. For `CC(=O)c1c(C)nc2ccccc2c1NCc1ccc(C#CC2(O)CCC3(C)C(CC(O)C4C3CC(O)C3(C)C4CC[C@@H]3C(C)CCC(=O)O)C2)cc1` (stereo partly drawn) [Example 1, 2-Methyl-3-acetyl-4-{4-[1-(3α,7α, 12α-trihydroxy-10β, 13β-dimethyl-17β-(carboxy-1-methylpropyl)hexadecahydrocyclopenta[a]phenanthren-3-yl)ethyn-2-yl]-benzylamino}quinoline], the remaining activity at 30 µM was 26%. `CC(=O)c1c(C)nc2ccccc2c1NCc1cccc(CC[C@@]2(O)CC[C@@]3(C)C(C[C@@H](O)C4C3C[C@H](O)[C@@]3(C)C4CC[C@@H]3[C@H](C)CCC(=O)NCC(=O)O)C2)c1` (stereo partly drawn) [Example 15, 2-Methyl-3-acetyl-4-{3-[1-(3α,7α,12α-trihydroxy-10β,13β-dimethyl-17β-(3-carboxymethylcarbamoyl-1-methylpropyl)hexadecahydrocyclopenta[a]phenanthren-3-yl)eth-2-yl]benzylamino}quinoline] gave a remaining activity at 30 µM of 65%.

Tested on: not given
Assay: not given
Details: not given
With `COC(=O)c1c(C)nc2cccc(C)c2c1NCc1ccc(CCC2(O)CCC3(C)C(CC(O)C4C3CC(O)C3(C)C4CC[C@@H]3C(C)CCC(=O)O)C2)cc1` (stereo partly drawn) the melting point was > 180 °C (dec.).
